According to US11524960B2, “Heterobicyclic inhibitors of MAT2A and methods of use for treating cancer” (AGIOS PHARMACEUTICALS, INC., priority 2018, dated 2022):

Tests used:
MAT2A homodimer = target: T1, MAT2A homodimer (Homo sapiens, UniProt P31153); experiment: Biochemical assay: inhibition of MAT2A (phosphate release, PiColorLock Gold); details: MAT2A IC50 score; read-out: Enzyme Inhibition (Example 275)
T1 construct: inferred from Ni sepharose purification and imidazole elution; made in house; host or cells: Sf9 insect cells, recombinant baculovirus (Bac to Bac, pFASTBAC1)
Method in brief: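 Baculovirus/Sf9-expressed, Ni-purified MAT2A at 4 µg/mL was preincubated with compound for 60 min at 25 °C in 50 mM Tris pH 8.0, 50 mM KCl, 15 mM MgCl2, 0.3 mM EDTA, 0.005% BSA. Substrate mix (500 μM ATP, 400 μM L-methionine) was added and the reaction ran 60 min at 25 °C. Phosphate released stoichiometrically with SAM was measured colorimetrically against a phosphate standard curve.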

HCT116 MTAP−/− = experiment: Inhibition of cellular proliferation (Cell Titer Glo), HCT116 MTAP−/−; type: cell-based, human; details: Homo sapiens, HCT-116, 96 h, 4 days, IC50 score, read-out: 4 Day Relative Growth Inhibition (MTAP −/−; Example 277)
Method in brief: (§1)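 Isogenic HCT116 lines, MTAP+/+ and MTAP−/−, treated 24 h after plating with 10-point 3-fold compound dilutions including DMSO only, then grown 4 days at 37 °C/5% CO2. Cell Titer Glo ATP luminescence, blank-subtracted and normalised to 0.2% DMSO control, gave percent change in proliferation versus log concentration.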

[1] = tested on: SAM in HCT116 human colon carcinoma cell line engineered to delete the MTAP gene (MTAP −/−); experiment: Cellular assay of target engagement (SAM) by LC-MS/MS; type: cell-based; details: Homo sapiens, HCT-116, 72 h, IC50 score, read-out: Cell 72 h SAM Inhibition (MTAP −/−; Example 276)
Method in brief: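 MTAP-deleted HCT116 cells were dosed 24 h after plating with a 10-point 3-fold compound series in DMSO, then incubated 72 h at 37 °C/5% CO2. Cells were extracted in cold 80% methanol with acetic acid and d3-SAM internal standard. SAM was quantified by LC-MS/MS MRM (m/z 399.2→250.1).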

HCT116 MTAP+/+ = experiment: Inhibition of cellular proliferation (Cell Titer Glo), HCT116 MTAP+/+; type: cell-based, human; details: Homo sapiens, HCT-116, 96 h, 4 days, IC50 score, read-out: 4 Day Relative Growth Inhibition (MTAP +/+; Example 277)
Method in brief: as §1

T1 sequence (P31153 whole entry): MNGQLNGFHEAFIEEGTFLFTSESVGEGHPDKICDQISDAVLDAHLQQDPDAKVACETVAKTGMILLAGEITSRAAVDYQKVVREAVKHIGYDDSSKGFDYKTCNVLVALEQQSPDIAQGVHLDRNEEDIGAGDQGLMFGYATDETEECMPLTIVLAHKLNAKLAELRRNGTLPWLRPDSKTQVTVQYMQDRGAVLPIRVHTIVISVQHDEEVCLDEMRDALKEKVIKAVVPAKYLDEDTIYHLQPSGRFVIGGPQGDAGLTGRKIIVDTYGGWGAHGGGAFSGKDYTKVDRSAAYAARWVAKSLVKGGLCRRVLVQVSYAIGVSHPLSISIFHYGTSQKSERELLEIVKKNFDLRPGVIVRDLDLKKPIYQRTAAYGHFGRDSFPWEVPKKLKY

Row | SMILES | IC50 (MAT2A homodimer) | IC50 (HCT116 MTAP−/−) | IC50 [1] | IC50 (HCT116 MTAP+/+)
1 | Cn1cc2cc(-n3cc4cnc(NCC(F)(F)F)nc4c(-c4ccc(OC(F)F)cc4)c3=O)ccc2n1 [Example 148, 8-(4-(difluoromethoxy)phenyl)-6-(2-methyl-2H-indazol-5-yl)-2-((2,2,2-trifluoroethyl)amino)pyrido[4,3-d]pyrimidin-7(6H)-one] | < 100 nM | < 100 nM | < 100 nM | 100 to 10000 nM
2 | CCOc1cnc2cn(-c3ccc4nn(C)cc4c3)c(=O)c(-c3ccc(OC(F)(F)F)nc3)c2n1 [Example 148-A] | < 100 nM | 100 to 10000 nM | < 100 nM | 100 to 10000 nM
3 | CCOc1cnc2cn(-c3ccc4nn(C)cc4c3)c(=O)c(-c3ccc(OC(F)F)nc3)c2n1 [Example 149-A] | < 100 nM | 100 to 10000 nM | < 100 nM | 100 to 10000 nM
4 | Cc1nc2ccc(-n3cc4cnc(NCC(F)(F)F)nc4c(-c4ccc(OC(F)F)cc4)c3=O)cc2s1 [Example 150, 8-(4-(difluoromethoxy)phenyl)-6-(2-methylbenzo[d]thiazol-6-yl)-2-((2,2,2-trifluoroethyl)amino)pyrido[4,3-d]pyrimidin-7(6H)-one] | < 100 nM | 100 to 10000 nM | < 100 nM | 100 to 10000 nM
5 | CCOc1cnc2cn(-c3ccc(OC)cc3)c(=O)c(-c3ccc(OC(F)F)cc3)c2n1 [Example 150-A] | < 100 nM | 100 to 10000 nM | < 100 nM | 100 to 10000 nM
6 | Cn1cnc2ccc(-n3cc4cnc(NCC(F)(F)F)nc4c(-c4ccc(OC(F)F)cc4)c3=O)cc21 [Example 151, 8-(4-(difluoromethoxy)phenyl)-6-(1-methyl-1H-benzo[d]imidazol-6-yl)-2-((2,2,2-trifluoroethyl)amino)pyrido[4,3-d]pyrimidin-7(6H)-one] | < 100 nM | < 100 nM | < 100 nM | 100 to 10000 nM
7 | CCn1cc2cc(-n3cc4cnc(NCC(F)(F)F)nc4c(-c4ccc(OC(F)F)cc4)c3=O)ccc2n1 [Example 152, 8-(4-(difluoromethoxy)phenyl)-6-(2-ethyl-2H-indazol-5-yl)-2-((2,2,2-trifluoroethyl)amino)pyrido[4,3-d]pyrimidin-7(6H)-one] | < 100 nM | < 100 nM | < 100 nM | > 10000 nM
8 | CC(C)n1cc2cc(-n3cc4cnc(NCC(F)(F)F)nc4c(-c4ccc(OC(F)F)cc4)c3=O)ccc2n1 [Example 153, 8-(4-(difluoromethoxy)phenyl)-6-(2-isopropyl-2H-indazol-5-yl)-2-((2,2,2-trifluoroethyl)amino)pyrido[4,3-d]pyrimidin-7(6H)-one] | < 100 nM | < 100 nM | < 100 nM | > 10000 nM
9 | Cn1cc(-n2cc3cnc(NCC(F)(F)F)nc3c(-c3ccc(OC(F)F)cc3)c2=O)ccc1=O [Example 155, 8-(4-(difluoromethoxy)phenyl)-6-(1-methyl-6-oxo-1,6-dihydropyridin-3-yl)-2-((2,2,2-trifluoroethyl)amino)pyrido[4,3-d]pyrimidin-7(6H)-one] | < 100 nM | 100 to 10000 nM | 100 to 1000 nM | 100 to 10000 nM
10 | O=c1c(-c2ccc(OC(F)F)cc2)c2nc(NCC(F)(F)F)ncc2cn1-c1ccc2ncsc2c1 [Example 156, 6-(benzo[d]thiazol-6-yl)-8-(4-(difluoromethoxy)phenyl)-2-((2,2,2-trifluoroethyl)amino)pyrido[4,3-d]pyrimidin-7(6H)-one] | < 100 nM | < 100 nM | < 100 nM | > 10000 nM
11 | O=c1c(-c2ccc(OC(F)F)cc2)c2nc(NCC(F)(F)F)ncc2cn1-c1ccc2nccn2c1 [Example 157, 8-(4-(difluoromethoxy)phenyl)-6-(imidazo[1,2-a]pyridin-6-yl)-2-((2,2,2-trifluoroethyl)amino)pyrido[4,3-d]pyrimidin-7(6)-one] | < 100 nM | 100 to 10000 nM | < 100 nM | > 10000 nM
12 | Cc1c2cc(-n3cc4cnc(NCC(F)(F)F)nc4c(-c4ccc(OC(F)F)cc4)c3=O)ccc2nn1C [Example 158, 8-(4-(difluoromethoxy)phenyl)-6-(2,3-dimethyl-2H-indazol-5-yl)-2-((2,2,2-trifluoroethyl)amino)pyrido[4,3-d]pyrimidin-7(6H)-one] | < 100 nM | < 100 nM | < 100 nM | > 10000 nM
13 | O=c1c(-c2ccc(OC(F)F)cc2)c2nc(NCC(F)(F)F)ncc2cn1-c1ccc2ncccc2c1 [Example 159, 8-(4-(difluoromethoxy)phenyl)-6-(quinolin-6-yl)-2-((2,2,2-trifluoroethyl)amino)pyrido[4,3-d]pyrimidin-7(6H)-one] | < 100 nM | < 100 nM | < 100 nM | 100 to 10000 nM
14 | Cn1cc2cc(-n3cc4cnc(NCC(F)(F)F)nc4c(-c4ccc(OC(F)(F)F)cc4)c3=O)ccc2n1 [Example 160, 6-(2-methyl-2H-indazol-5-yl)-2-((2,2,2-trifluoroethyl)amino)-8-(4-(trifluoromethoxy)phenyl)pyrido[4,3-d]pyrimidin-7(6H)-one] | < 100 nM | < 100 nM | < 100 nM | > 10000 nM
15 | Cn1cc2cc(-n3cc4cnc(NCC(F)(F)F)nc4c(-c4ccc(C(F)(F)F)cc4)c3=O)ccc2n1 [Example 161, 6-(2-methyl-2H-indazol-5-yl)-2-((2,2,2-trifluoroethyl)amino)-8-(4-(trifluoromethyl)phenyl)pyrido[4,3-d]pyrimidin-7(6H)-one] | < 100 nM | < 100 nM | < 100 nM | > 10000 nM
16 | O=c1c(-c2ccc(C3CC3)cc2)c2nc(NCC(F)(F)F)ncc2cn1-c1ccc2ncsc2c1 [Example 166, 6-(benzo[d]thiazol-6-yl)-8-(4-cyclopropylphenyl)-2-((2,2,2-trifluoroethyl)amino)pyrido[4,3-d]pyrimidin-7(6)-one] | < 100 nM | < 100 nM | < 100 nM | > 10000 nM
17 | COc1ccc(-n2cc3cnc(NCC(F)(F)F)nc3c(-c3ccc(C4CC4)cc3)c2=O)cc1 [Example 167, 8-(4-cyclopropylphenyl)-6-(4-methoxyphenyl)-2-((2,2,2-trifluoroethyl)amino)pyrido[4,3-d]pyrimidin-7(6)-one] | < 100 nM | 100 to 10000 nM | 100 to 1000 nM | > 10000 nM
18 | O=c1c(-c2ccc(C3CC3)cc2)c2nc(NCC(F)(F)F)ncc2cn1-c1ccc2ncccc2c1 [Example 168, 8-(4-cyclopropylphenyl)-6-(quinolin-6-yl)-2-((2,2,2-trifluoroethyl)amino)pyrido[4,3-d]pyrimidin-7(6)-one] | < 100 nM | < 100 nM | < 100 nM | > 10000 nM
19 | CCNc1ncc2cn(-c3ccc4nn(C)cc4c3)c(=O)c(-c3ccc(Cl)cc3)c2n1 [Example 169, 8-(4-chlorophenyl)-2-(ethylamino)-6-(2-methyl-2H-indazol-5-yl)pyrido[4,3-d]pyrimidin-7(6H)-one] | < 100 nM | < 100 nM | < 100 nM | > 10000 nM
20 | CCNc1ncc2cn(-c3ccc4nn(C)cc4c3)c(=O)c(-c3ccc(OC(F)F)cc3)c2n1 [Example 171, 8-(4-(difluoromethoxy)phenyl)-2-(ethylamino)-6-(2-methyl-2H-indazol-5-yl)pyrido[4,3-d]pyrimidin-7(6H)-one] | < 100 nM | < 100 nM | < 100 nM | > 10000 nM
21 | Cn1cc2cc(-n3cc4cnc(NC5CC5)nc4c(-c4ccc(OC(F)F)cc4)c3=O)ccc2n1 [Example 172, 2-(cyclopropylamino)-8-(4-(difluoromethoxy)phenyl)-6-(2-methyl-2H-indazol-5-yl)pyrido[4,3-d]pyrimidin-7(6H)-one] | < 100 nM | < 100 nM | < 100 nM | > 10000 nM
22 | COc1ccc(-c2c(=O)n(-c3ccc4c(c3)OCCO4)cc3cnc(NCC(F)(F)F)nc23)cc1 [Example 177, 6-(2,3-dihydrobenzo[b][1,4]dioxin-6-yl)-8-(4-methoxyphenyl)-2-((2,2,2-trifluoroethyl)amino)pyrido[4,3-d]pyrimidin-7(6H)-one] | < 100 nM | 100 to 10000 nM | < 100 nM | > 10000 nM
23 | O=c1c(-c2ccc(OC(F)F)cc2)c2nc(NCC(F)(F)F)ncc2cn1-c1ccc2c(c1)OCCO2 [Example 178, 8-(4-(difluoromethoxy)phenyl)-6-(2,3-dihydrobenzo[b][1,4]dioxin-6-yl)-2-((2,2,2-trifluoroethyl)amino)pyrido[4,3-d]pyrimidin-7(6H)-one] | < 100 nM | 100 to 10000 nM | < 100 nM | 100 to 10000 nM
